Measured values: US10300107B2, “Compositions and methods for CaMKII inhibitors and uses thereof” (THE REGENTS OF THE UNIVERSITY OF COLORADO, priority 2007, dated 2019)
“Also recorded” adds a separate entry of the source. Where no end group is shown, it is not given here.

What was measured:
CaMKII [1] = biological target: T1, CaMKII (Homo sapiens, UniProt Q9UQM7); test: CaMKII phosphorylation of crude liver extracts or GST-NR2B-c (autoradiography); type: biochemical; details: 5 μM
T1 construct: made in house; host or cells: baculovirus/Sf9 cells
Procedure: Crude liver extracts or NR2B-c were phosphorylated with 100 nM autophosphorylated CaMKII, 2 μM CaM and 40 μM [γ-^32P]-ATP (˜2 Ci/mmole). Pre-auto-phosphorylation (of 300 nM CaMKII) was done for 5 min on ice, in presence of 3 mM CaCl2, 6 μM CaM and 120 μM unlabelled ATP. After addition of [γ-^32P]-ATP and inhibitors as indicated, 2 min reactions at 30° C. were started by addition of substrate protein extract (⅓^rd to 1/12th of total reaction volume), and stopped with 25 mM EDTA. Phosphorylation was detected by autoradiography after gel electrophoresis.

[2] = system: CaMKII T-site mutants W237R and 1205K; test: Kinase assay with GFP-CaMKIIα T-site mutants; type: biochemical; details: substrate syntide2
Text: In another example, FIG. 3. […] FIG. 3A represents a model of CaMKII kinase domain (Rosenberg et al., 2005) with the substrate binding S-site (indicated), the T286-region binding T-site (indicated), and the regulatory region (shown as ribbon). The arrow indicates the proposed orientation of CN21a binding to the T-site, when the regulatory region is displaced after activation. […] Results are normalized to maximal kinase activity without inhibitor. Error bars show s.e.m. […] Bound CaMKII was eluted and detected by Western blot.
(§1) CaMKII activity assays. Standard CaMKII assays were done for 1 min at 30° C. previously described, with 20 nM CaMKII (subunit, not holoenzyme concentration), 50 mM PIPES pH 7.2, 0.1 mg/ml BSA, 10 mM MgCl2, 100 μM [γ-^32P] ATP (˜1 Ci/mmol), 1 mM CaCl2, 1-2 μM CaM, and 30-60 μM AC2 peptide (or syntide2). The reactions were spotted onto Whatman P81 phosphocellulose paper rectangles (˜2×2.5 cm). To remove free radioactivity, the paper rectangles were rinsed and washed for 30 min under agitation in 0.5% phosphoric acid or water. […] Radioactivity of the bound peptides was quantified in a Beckman 6000TA scintillation counter by the Cherenkov method. Any changes of the standard protocol were done as indicated. For assays of the GFP-CaMKIIα mutants, kinase amounts were normalized by GFP fluorescence in the extract, and total protein was adjusted with Cos-7 extracts.

[3] = biological target: T2, CaMKII binding to GST-NR2B-c (Homo sapiens, UniProt Q9UQM7); test: Ca2+/CaM-induced CaMKII binding to immobilized GST-NR2B-c; details: Western blot of eluted CaMKII
T2 construct: made in house; host or cells: CaMKII: baculovirus/Sf9; GST-NR2B-c and CaM: bacteria
Procedure: CaMKII binding to NR2B-c was assessed as previously described. Briefly, GST-NR2B-c was immobilized on anti-GST coated microtiter plates, then overlaid with 100 nM CaMKII in presence of Ca^2+/CaM and 1 or 5 μM of various CN peptides. After extensive wash, protein was eluted from the plates by boiling in SDS-loading buffer. Eluted CaMKII was detected by Western-blot as described above.

[4] = biological target: T3, CaM dissociation from CaMKII (Homo sapiens, UniProt Q9UQM7); test: TA-CaM dissociation from CaMKII; type: binding; details: 5 μM; 150 nM CaMKII, 30 nM TA-CaM
T3 construct: made in house; host or cells: baculovirus/Sf9 cells (CaMKII)
Procedure: TA-CaM dissociation was assessed by increased TA-CaM (30 nM) fluorescence after dissociation from CaMKII or its CaM-binding domain (CBD) (150 nM) during a chase with unlabeled CaM (60 μM). Buffer contained 50 mM Hepes pH 7.4, 150 mM KCl, 2 mM MgCl2, 2 mM MgADP, 2 mM CaCl2, and 0.1 mg/ml BSA. Fluorescence was measured in a time scan (1 sec samples) at 365 nm excitation and 415 nm emission wavelength on a spectro-fluorometer (Fluorolog3; Horiba Jobin Yvon) and was corrected for photobleach (FIG. 16).

CaMKI = CaMKI (Homo sapiens, UniProt Q14012); test: CaMKI activity / inhibition; type: biochemical
Chain of CaMKI (Q14012 whole entry, species assumed): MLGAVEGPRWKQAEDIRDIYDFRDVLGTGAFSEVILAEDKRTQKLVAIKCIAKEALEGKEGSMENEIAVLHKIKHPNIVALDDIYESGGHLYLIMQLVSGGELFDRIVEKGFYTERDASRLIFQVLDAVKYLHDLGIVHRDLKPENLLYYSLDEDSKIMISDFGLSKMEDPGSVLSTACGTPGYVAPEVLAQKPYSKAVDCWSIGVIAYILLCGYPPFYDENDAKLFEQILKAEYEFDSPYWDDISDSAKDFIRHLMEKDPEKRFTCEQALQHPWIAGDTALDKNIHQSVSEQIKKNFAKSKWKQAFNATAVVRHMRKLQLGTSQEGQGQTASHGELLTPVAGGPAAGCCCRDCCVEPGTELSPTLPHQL
Text: For curve fit, the Hill coefficient was set as 1.

CaMKII [5] = type: biochemical
Procedure: as §1

CaMKII [6] = biological target: T1, CaMKII; test: CaMKII auto- and protein-phosphorylation (MAP2, T286, T305; immuno-blot); type: biochemical; details: for CaMKII T305 auto-phosphorylation: CN21 5 μM; for CaMKII T305 auto-phosphorylation / CaMKII T286 auto-phosphorylation: KN93 10 μM; for CaMKII T286 auto-phosphorylation: CN peptides 1-5 μM
Procedure: CaMKII auto- and protein-phosphorylation. 10 nM MAP2 (˜140 nM phosphorylation sites) was used instead of substrate peptide, and reaction times were 5 min, unless indicated otherwise. CaMKII concentration was 100 nM subunits (=8.3 nM holoenzymes). Auto- and MAP2-phosphorylation were assessed by Immuno-blot analysis previously derived (Bayer et al., 2002, incorporated herein by reference) with phospho-T286- or -T305-specific antibodies (1:500; PhosphoSolutions) and an anti-phospho-Thr antibody (1:500; Zymed), respectively. Total CaMKIIα was detected with CBα2 antibody (1:2000; GIBCO). Protein were separated on 10% poly-acrylamid SDS Gels, and electro-blotted onto “Protran” 0.2 μm pore nitrocelluse filters (e.g. Schleicher & Schull) or onto PVDF filters (e.g. Perkin Elmer). Alternatively, for quantitative analyses, a vacuum-driven slot-blot manifold (e.g. Schleicher & Schull) was used for transfer onto PVDF membranes. PVDF membranes were air-dried for 15 min, then wetted in Methanol. Blots were blocked in 5% milk in TBS-T (Tris-buffered saline pH 7.6 with 0.1% Tween-20). Antibodies were incubated for 45-60 min at room temperature in 2.5% milk in TBS-T; for the anti-phospho-T305 antibody, 2.5% BSA was used instead. After secondary antibody incubation (anti-mouse or anti-rabbit horseradish peroxidase conjugate; Amersham; 1:4000), detection was done using the “Western Lightning” system (Perkin Elmer) and exposure to “Hyperfilm” (Amersham). For quantitative analysis, chemoluminescence was captured using a ChemiImager 4400 imaging system (Alpha Innotek) instead of film. Only non-saturated images were analyzed, using AlphaEase software.

[7] = system: other kinases of the panel (CaMKIV, PKA, PKCα, JNK1α1, MAPK1, raf); type: biochemical; details: 5 μM peptide
Procedure: Kinase panels. A panel of different kinases was tested utilizing a kinase profiling service (Upstate Biotechnology). 40 min reactions at room temperature contained 0.1% BSA and were started by addition of 10 mM MgAcetate and [γ-^33P-ATP], stopped by 0.1% phosphoryic acid, spotted on filter mats, and washed 3×5 min in 75 mM phosphoric acid and 1× in methanol prior to drying and scintillation counting. CaMKII and IV were activated by 5 mM CaCl2 and 1.7 μM CaM in 40 mM Hepes pH 7.4; substrate was 30 μM […] (SEQ ID NO:22). Buffers and substrates for the other kinases are stated in brackets: PKA (8 mM MOPS pH 7, 0.2 mM EDTA; 30 μM Kemptide), PKCα (20 mM Hepes pH 7.2, 0.3% Triton X-100, 0.1 mg/ml phosphatidylserine, 10 μg/ml diacylglycerol; 0.1 mg/ml histone H1), JNK1α1 (50 mM Tris pH 7.5, 0.1 mM EGTA, 0.1% β-mercapto-ethanol; 3 μM ATF), MAPK1 and raf (25 mM Tris, pH 7.5, 0.02 mM EGTA; 250 μM proprietary substrate and 0.66 mg/ml myelin basic protein, respectively). Reactions in presence of 5 μM CN21a were done in duplicate, and normalized to four parallel reactions without inhibitor.

CaMKII [8] = test: Kinase panel (kinase profiling service): CaMKII; type: biochemical
CaMKII [9] = biological target: T1, CaMKII; test: CaMKII self-association in vitro; type: biochemical
Procedure: (§2) Stimulated CaMKII activity was assessed using purified CaMKII, [γ^32P]ATP, and the CaMKII substrate, syntide2. Reaction was initiated by addition of calcium and calmodulin. To measure autonomous activity, CaMKII was pre-autophosphorylated by incubation with calcium and calmodulin, which was then chelated by addition of EDTA prior to adding the kinase to syntide2 and [γ^32P]ATP. […] To measure self-association, purified CaMKII was incubated for five minutes with 1mM ADP, calcium and calmodulin, and the appropriate inhibitor. The reaction mixture was then centrifuged to pellet the self-associated kinase. The supernatant (S) was removed and saved and the pellet (P) was resuspended. Both were then resolved by SDS-PAGE and western-blotted for CaMKII. Self-associated kinase is found in the pellet.

[10] = system: 10DIV hippocampal neurons; test: NMDA induced cell death; type: cell-based; details: NMDA plus CNQX 5 minutes, assayed 24 hours after insult
Procedure: Neurons were co-transfected with siRNA or non-targeting RNA (NT) at 8DIV and were assayed at day 10. […] Cells were treated with 300 mM NMDA plus 50 mM CNQX (an AMPAR inhibitor) for 5 minutes and cell death was assayed 24 hours after insult. […] Increased AMPAR expression is thought to lead to increased cell death. Thus, by inducing cell death with NMDA and an AMPAR inhibitor, the AMPAR component was reduced.

Langerhans' islets = test: Glucose-induced insulin secretion from isolated Langerhans' islets; type: cell-based, rat; details: 11 mM glucose; EGTA 0.5 mM, KN93 10 μM, antCN27 5 μM, tatCN21 5 μM
Procedure: Insulin secretion. Langerhans' islets acutely isolated from adult male Wistar rats (Harlan) were obtained. […] Inhibitors or EGTA were added 30 min before stimulation. Insulin secreted into the medium during 90 min stimulation was measured using an ELISA kit (CrystalChem).

hippocampal neurons = test: Imaging of neuronal filopodia motility; type: cell-based, rat; details: 20 min incubation
Procedure: In another example, motility of hippocampal neurons was analyzed. […] Images of GFP expressing hippocampal neurons (5-6 days in vitro) were acquired at 30° C. in 20 s intervals in order to assess motility.
Imaging of neuronal filopodia motility was done similarly as previously described. Hippocampal cultures were prepared from newborn Sprague Dawley rats (Harlan) as previously described, plated onto poly-D-lysine coated glass bottom dishes (MatTek) at a density of ˜2.5×10^6 cells/cm^2 and maintained in Neurobasal A medium with penicillin/streptomycin (50 units/ml), glutamax (2 mM) and B27 supplement (Invitrogen). […] After 5 days in vitro, neurons were transfected with a GFP expression construct (Clonetech) using lipofectamine 2000 (Invitrogen), as described. On the next day neurons were imaged in culture medium on for example, a Zeiss Axiovert 200M systems equipped with a 40× oil immersion objective, Cool Snap HQ CCD camera (Roeper Scientific), Xenon lamp LB-LS/17 (Sutter Instruments) and climate control set to 30° C. and 5% CO2. Fluorescence Images were acquired and analyzed using SlideBook software (Intelligent Imaging Innovations). 16 images were taken in 20 s time intervals, at 100 ms exposure time and bin factor 2. Subtraction image (Δ image) stacks were generated by subtracting one stack (first image deleted) from its duplicate (last image deleted). […]

[11] = system: hippocampal and cortical cultures; test: Glutamate induced neuronal cell death measured by LDH release; type: cell-based, rat
Procedure: In another example, neuronal cell death is measured by LDH release. In this exemplary method, glutamate was used to induce neuronal cell death, A portion of CaMKIIN was fused to a cell penetrating molecule to generate tatCN21a construct.

calmodulin (CaM) = calmodulin (CaM) (Homo sapiens, UniProt P0DP23); test: Binding to calmodulin (slot blot, blot overlay, TA-CaM competition with CBD)
Procedure: TA-labeled CaM represents reduced fluorescence after binding to CaMKII or its CaM binding domain (CBD; −0.05 nM kD for CaM^5; see also FIG. 9G).
Measured was AC2 phosphorylation as described^4. Error bars show s.e.m.

CaMKII [12] = biological target: T1, CaMKII; test: Autonomous CaMKII activity (pre-autophosphorylated CaMKII); type: biochemical
Procedure: as §2

KRPPKLGQIGRSKRVVIEDDR [CN21]
CaMKII phosphorylation of bacterially expressed GST-NR2B-c (CaMKII [1]): blocks CaMKII phosphorylation
CaMKII phosphorylation of crude liver protein extracts (CaMKII [1]): blocks CaMKII phosphorylation
activity of CaMKII T-site mutants W237R and 1205K compared to GFP-CaMKIIα wild type [2]: significantly less affected
CaMKII binding to immobilized GST-NR2B-c / NR2B [3]: efficiently blocked
CaM dissociation from CaMKII [4]: slowed down CaM dissociation from CaMKII
effect on CaMKI activity (CaMKI): no significant effect
inhibition of CaMKII isoforms α and β (CaMKII [5]): inhibit both major brain CaMKII isoforms, α and β
inhibitory potency on CaMKII activity (CaMKII [5]; CN truncation peptides, substrate peptides AC2 or syntide 2, listed as CN21a): contains the full inhibitory potency; also recorded: full inhibitory effect
IC50 (CaMKII [5]; phosphorylation of syntide 2, read-out: IC50 of CaMKII inhibition): ~100 nM
mechanism of CaMKII inhibition (CaMKII [5]; versus substrate AC2, Lineweaver-Burk plot): competitive with AC2
CaMKII T305 auto-phosphorylation (CaMKII [6]): blocked T305
CaMKII T305 auto-phosphorylation (CaMKII [6]; listed as CN21a): blocks
CaMKII T286 auto-phosphorylation (CaMKII [6]): no significant effect
CaMKII T286 auto-phosphorylation (CaMKII [6]; listed as CN21a): not T286 autophosphorylation
activity of the other kinases of the panel [7]: not affected
CaMKII activity in kinase panel (CaMKII [8]; 5 μM peptide): completely blocked

tatCN21: CN21 fused to the cell penetrating tat sequence (YGRKKRRQRRRKRPPKLGQIGRSKRVVIEDDR)
CaMKII self-association in vitro (CaMKII [9]): inhibited
NMDA induced cell death [10]: reduces NMDA-induced cell death
CaMKII binding to immobilized GST-NR2B-c / NR2B [3]: efficiently blocked
CaMKII binding to immobilized GST-NR2B-c / NR2B ([3]; listed as TatCN21): inhibited binding
glucose-induced insulin secretion (Langerhans' islets): inhibited
motility in hippocampal neurons (hippocampal neurons): inhibits motility in hippocampal neurons
effect on CaMKI activity (CaMKI): dramatically reduces CaMKI activity
CaMKII-mediated AC2/AC3 phosphorylation at varying CaM concentrations (CaMKII [5]; 1 μM peptide): strongly inhibited
calcium and calmodulin stimulated CaMKII activity (CaMKII [5]; substrate syntide2): inhibit calcium and calmodulin stimulated CaMKII activity
glutamate induced cell death ([11]; 7DIV cortical, added 1-6 hours post insult): inhibits glutamate induced cell death
glutamate induced neuronal cell death ([11]; added 1 h after the insult): protective also when added 1 h after the insult
glutamate induced neuronal cell death ([11]; added 1 h after the insult, listed as tatCN21a): also when added 1h after the insult
glutamate induced neuronal cell death ([11]; present during the insult): reduce by half
glutamate induced neuronal cell death ([11]; present during the insult, listed as tatCN21a): inhibited glutamate induced neuronal cell death
competition with CBD for binding of TA-labeled CaM (calmodulin (CaM)): did not show any competition and not
MAP2 (substrate) phosphorylation by CaMKII (CaMKII [6]; 1-5 μM peptide): blocked MAP2
CaMKII T286 auto-phosphorylation (CaMKII [6]): not T286 phosphorylation
CaMKII activity in kinase panel (CaMKII [8]; 1 μM peptide): completely blocked CaMKII activity
CaMKII activity in kinase panel (CaMKII [8]; 5 μM peptide): blocked CaMKII activity
autonomous CaMKII activity (CaMKII [12]): inhibits autonomy; also recorded: blocks not only stimulated but also autonomous CaMKII activity
